Measured values published in patent US20250387382A1, “METHODS OF TREATING ESSENTIAL TREMOR” (Praxis Precision Medicines, Inc., priority 2023, published 2025).
Entries after “also recorded” stand apart in the source; their conditions may differ.

What was measured:
Format in all cases: in vivo, human
[1] = Phase 1 trial: effect of a high-fat, high-calorie meal on pharmacokinetics; details: 120 mg dose, steady state, healthy adult participants
Protocol: The effect of a high-fat, high-calorie meal on the pharmacokinetics of Compound I was evaluated in healthy participants who had previously received Compound 1 under fasted conditions in a Phase 1 trial. The effect of a high-fat, high-calorie meal on the PK of Compound 1 was evaluated at the 120 mg dose level after healthy adult participants had titrated to reach steady-state exposure. Following administration of 120 mg dose in the fed state or fasted state, the maximum plasma drug concentration (Cmax) and AUC, values were similar. Based on this analysis, Compound 1 may be administered without regard to food.

[2] = tested on: healthy participants and patients with ET; assay: Safety across the clinical development program
patients with ET = assay: Randomized withdrawal sub-study / blinded 6-week crossover period of the Phase 2 extension
Text: At the re-randomization visit for the cross-over period, and every 7 days in that portion of the study, the treatment regimen was assigned by the IRT and dispensed by site pharmacist for direct-to-patient (DTP) shipping. In the cross-over period of the trial, all participants were centrally assigned to randomize to remain on the current regimen of Compound 1 or placebo using an IRT. After 3 weeks, participants receiving placebo were switched over to Compound 1 following the regimen described in Table 3. The IRT assigned treatment regimen based on the Tetras ADL response criteria after day 7.
The open-label protocol was amended to further assess the criteria to be used in the upcoming randomized withdrawal study in Phase 3 (as described in Example 3). In this sub-study, patients were re-randomized in a blinded-fashion to either receive placebo or continue to receive Compound 1. Twenty-one patients who completed assessments at week 14 of the Open Label Extension were eligible to participate in the blinded sub-study.
Patients were evaluated weekly over a total of 6 weeks, with 11 patients assigned to Compound 1 and 10 patients assigned to placebo for the initial 3-week period, crossing over to either placebo or Compound 1 for an additional 3-week period. Blinded rescue was triggered for patients on placebo if loss in the mADL11 exceeded 2 points at any timepoint.
The results of the Phase 2 trials with ulixacaltamie (see Examples 1 and 2) support the efficacy and safety of ulixacaltamide in patients with ET. […] In the double-blind (DB) portion of the Phase 2 study, the rescored TETRAS-ADL items 1-11 (mADL11) score decreased more in participants randomized to Compound 1 compared with placebo after 56 days of dosing, with least square mean (LSM standard error [SE]) scores of ([…] [0.81]) compared with placebo (−0.87 [0.95]). The LSM (95% confidence interval [CI]) treatment difference was −1.82 (95% CI: −3.565, −0.066; with a nominal p value of <0.05). In the Phase 2 extension period, 20 participants completed a blinded 6-week crossover period. Participants were randomized in blinded fashion to either 3 weeks of Compound 1 60 mg or placebo. Rescue treatment (Compound 1) was offered to participants if their mADL11 worsened by a preset threshold. […] None of the Compound 1-treated participants and 9 of 21 placebo-treated participants qualified for and received rescue treatment within the 3-week period.

[3] = tested on: participants with moderate to severe ET; assay: Phase 2 trial, double-blind part: safety/tolerability
Protocol: This trial is a Phase 2 trial to evaluate the efficacy and safety/tolerability of titration of Compound 1 to 60 mg or 100 mg compared to placebo in participants with moderate to severe ET. Severity of ET in this study was defined by eligibility criteria on TETRAS-ADL, CGI-S, and TETRAS-PS items 6 and 7. This dose range finding trial is comprised of three parts. The first part was randomized, double-blinded (DB), and placebo-controlled, the second part was an optional extension that consisted of an Extension DB Lead-in Period followed by an Extension Open-label (OL) Period. Further, there was also a third part available for completers of the Day 99 visit, which third part was comprised of a blinded cross-over period (referred to as cross-over period) after re-randomization for 6 weeks, after which all completers would receive formula (I) in an open-label fashion. In part one of the trial, eligible participants were randomized to 1 of 2 dose levels of Compound 1 (60 mg or 100 mg) or to placebo. The primary objective of this trial was to evaluate the efficacy of Compound 1 compared to placebo after 56 days (end of randomized, DB, placebo-controlled part) of dosing in participants with ET with moderate to severe tremor utilizing modified ADL as the primary efficacy endpoint. Secondary and exploratory objectives include further efficacy evaluations, an evaluation of the safety and tolerability, and determination of plasma concentrations of formula (I) and its metabolites. The design of the Phase 2 trial is illustrated in FIG. 1.
Throughout the Intervention Period (Day 1 to Day 56), participants who chose to stop dosing or were required to stop dosing entered the Safety Follow-up Period. All participants were asked to return to the clinic for the Safety Follow-up Visit 14 days after their last dose of study drug except for those that chose to enroll in the optional Extension part of the trial (see below).
On Days 7, 21, 35, and 54 participants received a telephone call from site staff to ask about AEs and changes in concomitant medications.

[4] = patients who switched from Compound 1 to placebo

CC(C)(C)NC(=O)CN1CCC(CNC(=O)c2cc(F)cc(Cl)c2)CC1 [Compound 1, N-((1-(2-(tert-butylamino)-2-oxoethyl)piperidin-4-yl)methyl)-3-chloro-5-fluorobenzamide]
AUC, fed state vs fasted state [1]: similar | Cmax, fed state vs fasted state [1]: similar | Deaths or SAEs considered related to study drug ([2]; human, in vivo): No deaths or serious adverse events (SAEs) | Suicide attempts or pregnancies reported ([2]; human, in vivo): no suicide attempts or pregnancies | Safety profile ([2]; modified release formulation, titration, 5 to 120 mg for up to 129 days): favorable safety profile | Tolerability ([2]; up to 129-days of daily administration, 5 to 120 mg, titration schedule): generally well tolerated | Patients who maintained their mADL11 within 3-points compared to baseline (patients with ET; 52% on placebo): 85% | Participants with maintenance of response (patients with ET; crossover period, Compound 1 60 mg, 11 of 21 on placebo): 17 of 20 | Safety signals (patients with ET; in vivo): No new safety signals emerged; also recorded: No new safety signal was identified | Average loss of effect in mADL11 per week (patients with ET; [4]): 47% | Mean loss of effect in mADL11 (patients with ET; [4]): −1.15 points/week | Improvement in global mean change in mADL11 per week (patients with ET; periods receiving Compound 1): 6% | Mean improvement in mADL11 (patients with ET; periods receiving Compound 1): 0.16 points/week | Participants who qualified for and received rescue treatment (patients with ET; within the 3-week period, 9 of 21 on placebo): None | Safety profile, 60 mg vs 100 mg groups ([3]; in vivo): no significant difference in the safety profile | Severity of the majority of TEAEs ([3]; in vivo): mild-moderate | Proportion of subjects who discontinued ([3]; placebo 11%): 17% | Tolerability ([3]; titration to 60 mg or 100 mg, 56 days): well tolerated
